Reference: patent EP3474833B1, “CINNAMYL ALCOHOL DERIVATIVE FOR USE IN REDUCING APPETITE AND FOR GENERATING THE FEELING OF BEING FULL” (Symrise AG, priority 2016, dated 2017)

test system: humane Neuroblastomazellen (SH-SY5Y, ATCC Nummer CRL-2266); assay: Serotonin release in SH-SY5Y neuroblastoma cells (Serotonin-ELISA); assay type: cell-based, human; settings: SH-SY5Y-Zellen, 10 µM test substance, 5 min stimulation, Krebs-Ringer-HEPES Puffer pH 6,2; relative to 10 µM Nonivamid
Experimental: Als Zellmodell für die Ausschüttung des Neurotransmitters Serotonin werden humane Neuroblastomazellen (SH-SY5Y, ATCC Nummer CRL-2266) verwendet. Die Kultivierung erfolgt bei 37 °C und 5 % CO2-Gehalt mit einer Mischung, die zu gleichen Teilen aus Eagle's Minimum Essential Medium (EMEM) und F12 Medium (jeweils mit 10 % FBS und 1 % Penicillin/Streptomycin) besteht. Zur Bestimmung der Serotoninfreisetzung werden die Zellen mit Trypsin geerntet und nach einer Vitalitätsprüfung durch Trypanblaufärbung in definierter Zellzahl in 24-well Platten (Corning cell culture treated) ausgesät.
Nach 5-minütiger Stimulierung von 90.000 humanen Neuroblastomazellen (SH SY5Y) mit 60 µl Krebs-Ringer-HEPES Puffer, 0,1 % Ascorbinsäure, pH 6,2, mit oder ohne Zusatz von 10 µM einer der Verbindungen 1-4, , bzw. 10 µM Nonivamid als Positivkontrolle wird der Serotoningehalt mit Hilfe eines enzymbasierten Nachweisverfahrens (Serotonin-ELISA sensitiv, DLD Diagnostica, Hamburg, Deutschland) ermittelt. Tabelle 1. Serotonin-Freisetzung in SH-SY5Y-Zellen nach Stimulierung mit je 10 µM von Verbindungen nach Formel I.

Compound | Serotoninfreisetzung [% der Positivkontrolle]
CCCCCCCCC(=O)NCc1ccc(O)c(OC)c1 [Nonivamid, N-Nonanoylvanillylamin, reference compound] | 100 % der Positivkontrolle
OCC=Cc1ccccc1 [Verbindung 1, Cinnamylalkohol] | 129.29 % der Positivkontrolle
CCC(=O)OCC=Cc1ccccc1 [Verbindung 4, Cinnamylpropionat] | 115.57 % der Positivkontrolle
CC(C)C(=O)OCC=Cc1ccccc1 [Verbindung 6, Cinnamylisobutyrat] | 120.69 % der Positivkontrolle
CC(C)CC(=O)OC/C=C/c1ccccc1 [Verbindung 7, Cinnamylisovalerianat] | 118.47 % der Positivkontrolle
O=C(C=Cc1ccccc1)OCC=Cc1ccccc1 [Verbindung 11, Cinnamylcinnamat] | 120.83 % der Positivkontrolle
